This note sets out measurements from US20100173835A1, “Peptides for Treatment of Obesity” (Novo Nordisk A/S, priority 2008, published 2010).

Molecules are shown by their SMILES. pKi: −log10 of the molar value. In brackets after ≈: the same amount, converted by molar mass. Like-named read-outs stand apart in the source and are kept apart here. Where a SMILES comes first, the peptide text is derived from it. Bridges are numbered along the chain shown (N, C = ends). [ ]: non-standard residue; d: D form. The star is where a group is joined. Palmitoyl(16-(5-tetrazolyl)) = O=C(CCCCCCCCCCCCCCCc1nnn[nH]1)*; Hyp = O=C(O)[C@@H]1C[C@@H](O)CN1; NTA = O=C(O)CN(CC(=O)O)CC(=O)*; Nle = CCCC[C@H](N)C(=O)O; Orn = NCCC[C@H](N)C(=O)O; Dap = NC[C@H](N)C(=O)O; AEEA = NCCOCCOCC(=O)O

The target of one data set is T1, human MC4 receptor (Homo sapiens, UniProt P32245).
T1 construct: expressed in transfected cells
Kind of data set: Assay (V) Melanocortin Receptor 4 (MC4) binding assay. The conditions noted are these: 125NDP-α-MSH binding, BHK cell membranes; for pKi: read-out: Assay (V) MC4 [Ki]. How it is done:
Assay (V)—Melanocortin Receptor 4 (MC4) Binding Assay
In vitro ^125NDP-α-MSH binding to recombinant BHK cells expressing human MC4 receptor (filtration assay).
The assay is performed in 5 ml minisorb vials (Sarstedt No. 55.526) or in 96-well filterplates (Millipore MADVN 6550), and using BHK cells expressing the human MC4 receptor using BHK cells stably expressing the human MC4 receptor. The membranes were prepared from frozen or fresh cells that were homogenized in 20 mM HEPES pH 7.1, 5 mM MgCl2 and 1 mg/ml bacitracin and centrifuged at 15000 rpm at 4° C., 10 min in a Sorvall RC 5B plus, SS-34 rotor. The supernatant was discarded, and the pellets were re-suspended in buffer, homogenized and centrifuged two more times. The final pellets were resuspended in the buffer mentioned above, and the protein concentration was measured and adjusted with buffer to 14 to 17 mg/ml and the membrane preparation were kept at −80° C. until assay. The assay was run directly on a dilution of this cell membrane suspension, without any further preparation. The BHK cell membranes are kept at −80° C. until assay, and the assay is run directly on a dilution of this cell membrane suspension, without further preparation. The suspension is diluted to give maximally 10% specific binding, i.e. to approx. 50-100 fold dilution. The assay is performed in a total volume of 200 μl: 50 μl of cell suspension, 50 μl of ^125NDP-α-MSH (≈79 pM in final concentration), 50 μl of test compound and 50 μl binding buffer (pH 7) mixed and incubated for 2 h at 25° C. [binding buffer: 25 mM HEPES, pH 7.0, 1 mM CaCl2, 1 mM MgSO4, 1 mM EGTA, 0.02% Bacitracin, 0.005% Tween™ 20 and 0.1% HSA or, alternatively, 0.1% ovalbumin (Sigma; catalogue No. A-5503)]. Test compounds are dissolved in DMSO and diluted in binding buffer. Radiolabelled ligand and membranes are diluted in binding buffer. The incubation is stopped by dilution with 2×100 μl ice-cold 0.9% NaCl. The radioactivity retained on the filters is counted using a Cobra II auto gamma counter.
(§1) The data are analysed by non-linear regression analysis of binding curves, using the Windows™ program GraphPad™ Prism (GraphPad Software, USA).

A short description of data set [1]: Solubility data of compounds in water over the pH range. The data set is classed as physicochemical.
The next data set concerns the target T2, MC1 receptor (Homo sapiens, UniProt Q01726).
T2 construct: expressed in transfected cells
Kind of data set: Assay (IV) Melanocortin Receptor 1 (MC1) binding assay. How it is done:
Assay (IV)—Melanocortin Receptor 1 (MC1) Binding Assay
The MC1 receptor binding assay is performed on BHK cell membranes stably expressing the MC1 receptor. The assay is performed in a total volume of 250 NI: 25 μl of ^125NDP-α-MSH (22 pM in final concentration), 25 μl of test compound/control and 200 μl of cell membrane (25 μg/ml). Test compounds are dissolved in DMSO. Radioactively labeled ligand, membranes and test compounds are diluted in buffer: 25 mM HEPES, pH 7.4, 0.1 mM CaCl2, 1 mM MgSO4, 1 mM EDTA, 0.1% HSA and 0.005% Tween™ 20. Alternatively, HSA may be substituted with ovalbumin. The samples are incubated at 30° C. for 90 min. in Costar round-bottom microtiter plates. Incubation is terminated by filtration on a Packard harvester filtermate. Rapid filtration through Packard Unifilter-96 GF/B filters pre-treated with polyethylenimine (PerkinElmer 6005277). The filters are washed with ice-cold 0.9% NaCl 8-10 times. The plates is air dried at app. 55° C. for 30 min, and 50 μl Microscint 0 (Packard, cat. No. 6013616) is added to each well. The plates are counted in a Topcounter (1 min/well).
as §1

Setting [2] is: 125NDP-α-MSH binding, BHK cell membranes, read-out: Assay (IV) MC1 Ki.

T1 sequence (P32245 whole entry): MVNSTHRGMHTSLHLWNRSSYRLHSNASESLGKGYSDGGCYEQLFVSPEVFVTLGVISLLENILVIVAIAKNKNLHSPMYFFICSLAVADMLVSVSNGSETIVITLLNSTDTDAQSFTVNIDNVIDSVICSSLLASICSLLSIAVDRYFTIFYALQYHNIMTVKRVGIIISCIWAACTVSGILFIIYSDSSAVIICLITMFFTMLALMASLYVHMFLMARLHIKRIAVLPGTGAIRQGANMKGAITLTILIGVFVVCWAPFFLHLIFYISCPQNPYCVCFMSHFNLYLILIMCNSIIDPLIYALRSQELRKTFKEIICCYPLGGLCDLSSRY
T2 sequence (Q01726 whole entry): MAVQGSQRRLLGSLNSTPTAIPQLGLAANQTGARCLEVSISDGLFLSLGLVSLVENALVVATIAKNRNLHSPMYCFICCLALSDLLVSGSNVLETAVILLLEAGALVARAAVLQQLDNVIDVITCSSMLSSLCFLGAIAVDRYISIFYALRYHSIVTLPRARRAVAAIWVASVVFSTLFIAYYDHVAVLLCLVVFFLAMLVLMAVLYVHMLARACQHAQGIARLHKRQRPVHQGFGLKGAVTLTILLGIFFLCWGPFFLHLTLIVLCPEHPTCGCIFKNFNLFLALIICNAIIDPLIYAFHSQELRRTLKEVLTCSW

The term Ki denotes a dissociation constant, usually derived from enzyme kinetics or from competition with a known ligand. Higher therefore signals lower affinity. By solubility is commonly meant how much of the substance goes into solution per volume. In general, pKi refers to the negative decadic logarithm of the Ki, by convention in mol/L. On human MC4 receptor (Assay (V) MC4 [Ki] (nM)), `CCCC[C@H](NC(=O)[C@H](CCCNC(=O)CN(CC(=O)O)CC(=O)O)NC(=O)[C@H](Cc1c[nH]cn1)NC(=O)[C@H](CCC(N)=O)NC(=O)[C@H](CO)NC(=O)CNC(=O)COCCOCCNC(=O)CCCCCCCCCCCCCCCc1nnn[nH]1)C(=O)N[C@H]1CCC(=O)NCCCC[C@@H](C(N)=O)NC(=O)[C@H](Cc2c[nH]c3ccccc23)NC(=O)[C@H](CCCNC(=N)N)NC(=O)[C@@H](Cc2ccccc2)NC(=O)[C@@H]2C[C@@H](O)CN2C1=O` [Example 8, (2-{2-[16-(Tetrazol-5-yl)hexadecanoylamino]ethoxy}ethoxy)acetyl-Gly-Ser-Gln-His-Orn(BCMA)-Nle-c[Glu-Hyp-D-Phe-Arg-Trp-Lys]-NH2] ({Palmitoyl(16-(5-tetrazolyl))-AEEA}-GSQH[Orn](NTA)[Nle]E[Hyp][dF]RWK-NH2; lactam 7-12) had an inhibition constant Ki of 0.9 nM. Also, the solubility at 3 days is 716 µM (≈ 1520 µg/mL) in data set [1] (pH 2.96, pH 2.96, read-out: Conc (solubility in water)); 536 µM (≈ 1140 µg/mL) in data set [1] (pH 4.1, pH 4.1, read-out: Conc (solubility in water)); 389 µM (≈ 825 µg/mL) in data set [1] (pH 4.24, pH 4.24, read-out: Conc (solubility in water)); 34 µM (≈ 72.1 µg/mL) in data set [1] (pH 4.87, pH 4.87, read-out: Conc (solubility in water)); 10 µM (≈ 21.2 µg/mL) in data set [1] (pH 5.9, pH 5.9, read-out: Conc (solubility in water)); 26 µM (≈ 55.1 µg/mL) in data set [1] (pH 6.7, pH 6.7, read-out: Conc (solubility in water)). In addition, the solubility at 3 days in data set [1] (pH 7.45, pH 7.45, read-out: Conc (solubility in water)) was 271 µM (≈ 575 µg/mL); in data set [1] (pH 7.47, pH 7.47, read-out: Conc (solubility in water)), 116 µM (≈ 246 µg/mL); in data set [1] (pH 7.75, pH 7.75, read-out: Conc (solubility in water)), 280 µM (≈ 594 µg/mL); in data set [1] (pH 7.95, pH 7.95, read-out: Conc (solubility in water)), 546 µM (≈ 1160 µg/mL). At MC1 receptor, this molecule showed a pKi of less than 5.00.

In the case of `CCCC[C@H](NC(=O)[C@H](CNC(=O)CN(CC(=O)O)CC(=O)O)NC(=O)[C@H](CO)NC(=O)[C@H](CCC(N)=O)NC(=O)[C@H](CO)NC(=O)CNC(=O)COCCOCCNC(=O)COCCOCCNC(=O)COCCOCCNC(=O)COCCOCCNC(=O)CCCCCCCCCCCCCCCc1nnn[nH]1)C(=O)N[C@H]1CCC(=O)NCCCC[C@@H](C(N)=O)NC(=O)[C@H](Cc2c[nH]c3ccccc23)NC(=O)[C@H](CCCNC(=N)N)NC(=O)[C@@H](Cc2ccccc2)NC(=O)[C@@H]2C[C@@H](O)CN2C1=O` [Example 14, (2-{2-[2-(2-{2-[2-(2-{2-[2-(2-{2-[16-(Tetrazol-5-yl)hexadecanoylamino]ethoxy}ethoxy)acetylamino]ethoxy}ethoxy)acetylamino]ethoxy}ethoxy)acetylamino]ethoxy}ethoxy)acetyl-Gly-Ser-Gln-Ser-Dap(BCMA)-Nle-c[Glu-Hyp-D-Phe-Arg-Trp-Lys]-NH2] ({Palmitoyl(16-(5-tetrazolyl))-AEEA-AEEA-AEEA-AEEA}-GSQS[Dap](NTA)[Nle]E[Hyp][dF]RWK-NH2; lactam 7-12), the results for the pKi at human MC4 receptor and on MC1 receptor (setting [2]) were 8.06 and less than 5.00, respectively. For the same molecule, the solubility at 3 days in data set [1] (pH 3.18) was 19 µM (≈ 47.1 µg/mL); in data set [1] (pH 4.62), 15 µM (≈ 37.2 µg/mL); in data set [1] (pH 4.66) it was 23 µM (≈ 57 µg/mL); in data set [1] (pH 5.07) it was 18 µM (≈ 44.6 µg/mL); in data set [1] (pH 5.37), 10 µM (≈ 24.8 µg/mL); in data set [1] (pH 5.84), 41 µM (≈ 102 µg/mL). In addition, the solubility at 3 days in data set [1] (pH 6.5) came to 19 µM (≈ 47.1 µg/mL); in data set [1] (pH 7), 17 µM (≈ 42.1 µg/mL); in data set [1] (pH 7.29) it was 20 µM (≈ 49.6 µg/mL); in data set [1] (pH 7.43) it was 29 µM (≈ 71.9 µg/mL).

For the molecule `CCCC[C@H](NC(=O)[C@H](CNC(=O)CN(CC(=O)O)CC(=O)O)NC(=O)[C@H](Cc1c[nH]cn1)NC(=O)[C@H](CCC(N)=O)NC(=O)[C@H](CO)NC(=O)CNC(=O)COCCOCCNC(=O)COCCOCCNC(=O)COCCOCCNC(=O)COCCOCCNC(=O)CCCCCCCCCCCCCCCc1nnn[nH]1)C(=O)N[C@H]1CCC(=O)NCCCC[C@@H](C(N)=O)NC(=O)[C@H](Cc2c[nH]c3ccccc23)NC(=O)[C@H](CCCNC(=N)N)NC(=O)[C@@H](Cc2ccccc2)NC(=O)[C@@H]2C[C@@H](O)CN2C1=O` [Example 16, (2-{2-[2-(2-{2-[2-(2-{2-[2-(2-{2-[16-(Tetrazol-5-yl)hexadecanoylamino]ethoxy}ethoxy)acetylamino]ethoxy}ethoxy)acetylamino]ethoxy}ethoxy)acetylamino]ethoxy}ethoxy)acetyl-Gly-Ser-Gln-His-Dap(BCMA)-Nle-c[Glu-Hyp-D-Phe-Arg-Trp-Lys]-NH2] ({Palmitoyl(16-(5-tetrazolyl))-AEEA-AEEA-AEEA-AEEA}-GSQH[Dap](NTA)[Nle]E[Hyp][dF]RWK-NH2; lactam 7-12), the pKi was 8.56 on human MC4 receptor and less than 5.00 at MC1 receptor (setting [2]). Further, the solubility at 3 days in data set [1] (pH 3.18) came to 531 µM (≈ 1340 µg/mL); in data set [1] (pH 4.32), 515 µM (≈ 1300 µg/mL); in data set [1] (pH 4.67) it was 492 µM (≈ 1240 µg/mL); in data set [1] (pH 4.89), 450 µM (≈ 1140 µg/mL); in data set [1] (pH 4.98) it was 347 µM (≈ 877 µg/mL); in data set [1] (pH 5.75) it was 41 µM (≈ 104 µg/mL). Also, the solubility at 3 days in data set [1] (pH 6.37) worked out at 51 µM (≈ 129 µg/mL); in data set [1] (pH 6.66) it was 93 µM (≈ 235 µg/mL); in data set [1] (pH 7.3) it was 454 µM (≈ 1150 µg/mL); in data set [1] (pH 7.66) it was 596 µM (≈ 1510 µg/mL).

In the case of `CCCC[C@H](NC(=O)[C@H](CNC(=O)CN(CC(=O)O)CC(=O)O)NC(=O)[C@H](Cc1c[nH]cn1)NC(=O)[C@H](CCC(N)=O)NC(=O)[C@H](CO)NC(=O)[C@H](CCC(=O)O)NC(=O)COCCOCCNC(=O)CCCCCCCCCCCCCCCc1nnn[nH]1)C(=O)N[C@H]1CCC(=O)NCCCC[C@@H](C(N)=O)NC(=O)[C@H](Cc2c[nH]c3ccccc23)NC(=O)[C@H](CCCNC(=N)N)NC(=O)[C@@H](Cc2ccccc2)NC(=O)[C@@H]2C[C@@H](O)CN2C1=O` [Example 17, (2-{2-[16-(Tetrazol-5-yl)hexadecanoylamino]ethoxy}ethoxy)acetyl-Glu-Ser-Gln-His-Dap(BCMA)-Nle-c[Glu-Hyp-D-Phe-Arg-Trp-Lys]-NH2] ({Palmitoyl(16-(5-tetrazolyl))-AEEA}-ESQH[Dap](NTA)[Nle]E[Hyp][dF]RWK-NH2; lactam 7-12), the figures for the pKi on human MC4 receptor and on MC1 receptor (setting [2]) were 8.27 and less than 5.00, respectively. The solubility at 3 days in data set [1] (pH 3.32, pH 3.32, read-out: Conc (solubility in water)) was 34 µM (≈ 73.6 µg/mL); in data set [1] (pH 3.76, pH 3.76, read-out: Conc (solubility in water)), 25 µM (≈ 54.1 µg/mL); in data set [1] (pH 4.31, pH 4.31, read-out: Conc (solubility in water)) it was 20 µM (≈ 43.3 µg/mL); in data set [1] (pH 4.56, pH 4.56, read-out: Conc (solubility in water)) it was 20 µM (≈ 43.3 µg/mL); in data set [1] (pH 4.94, pH 4.94, read-out: Conc (solubility in water)) it was 23 µM (≈ 49.8 µg/mL); in data set [1] (pH 5.55, pH 5.55, read-out: Conc (solubility in water)), 39 µM (≈ 84.4 µg/mL). For the same molecule, the solubility at 3 days amounted to 127 µM (≈ 275 µg/mL) in data set [1] (pH 6.04, pH 6.04, read-out: Conc (solubility in water)); 226 µM (≈ 489 µg/mL) in data set [1] (pH 6.34, pH 6.34, read-out: Conc (solubility in water)); 303 µM (≈ 656 µg/mL) in data set [1] (pH 6.89, pH 6.89, read-out: Conc (solubility in water)); 351 µM (≈ 760 µg/mL) in data set [1] (pH 7.62, pH 7.62, read-out: Conc (solubility in water)).
